Reference: US20240270762A1, “PENICILLIN-BINDING PROTEIN INHIBITORS” (priority 2021, published 2024)
≈ marks a conversion by molar mass, not a printed value.

Columns and labels:
[1] = test system: P. aeruginosa ATCC 35151; test: microbe, parasite or virus in culture; type: cell-based; details: Pseudomonas aeruginosa, ATCC35151, read-out: Minimum inhibitory concentration, P. aeruginosa ATCC 35151
[2] = test system: P. aeruginosa (ΔmexAB-oprM); test: Broth microdilution MIC in iron-depleted CAMHB (IDM); type: cell-based; details: Pseudomonas aeruginosa; iron-depleted CAMHB (IDM); […]; read-out: Minimum inhibitory concentration, P. aeruginosa ΔmexAB-oprM
[3] = test system: P. aeruginosa CDC-0054; test: microbe, parasite or virus in culture; type: cell-based; details: Pseudomonas aeruginosa, CDC0054, read-out: Minimum inhibitory concentration, P. aeruginosa CDC-0054
[4] = test system: P. aeruginosa CDC-0090; test: microbe, parasite or virus in culture; type: cell-based; details: Pseudomonas aeruginosa, CDC0090, read-out: Minimum inhibitory concentration, P. aeruginosa CDC-0090
[5] = test system: A. baumannii CDC-0045; test: microbe, parasite or virus in culture; type: cell-based; details: Acinetobacter baumannii, CDC0045, read-out: MIC, A. baumannii CDC-0045
[6] = test system: B. humptydooensis ATCC BAA-2767; test: microbe, parasite or virus in culture; type: cell-based; details: Burkholderia humptydooensis, ATCCBAA2767, read-out: Minimum inhibitory concentration (MIC), B. humptydooensis ATCC BAA-2767
[7] = test system: P. aeruginosa CDC-0110; test: microbe, parasite or virus in culture; type: cell-based; details: Pseudomonas aeruginosa, CDC0110, read-out: Minimum inhibitory concentration, P. aeruginosa CDC-0110
[8] = biological target: T1, PBP1a from Acinetobacter baumannii (ATCC 19606) (Acinetobacter baumannii, UniProt A0ABX6CK30); test: Bocillin-FL fluorescence polarization competition binding, A. baumannii PBP1a; details: fluorescence polarization competition binding assay using Bocillin-FL; read-out: A. baumannii PBP1a Potency
T1 sequence (A0ABX6CK30 1-851): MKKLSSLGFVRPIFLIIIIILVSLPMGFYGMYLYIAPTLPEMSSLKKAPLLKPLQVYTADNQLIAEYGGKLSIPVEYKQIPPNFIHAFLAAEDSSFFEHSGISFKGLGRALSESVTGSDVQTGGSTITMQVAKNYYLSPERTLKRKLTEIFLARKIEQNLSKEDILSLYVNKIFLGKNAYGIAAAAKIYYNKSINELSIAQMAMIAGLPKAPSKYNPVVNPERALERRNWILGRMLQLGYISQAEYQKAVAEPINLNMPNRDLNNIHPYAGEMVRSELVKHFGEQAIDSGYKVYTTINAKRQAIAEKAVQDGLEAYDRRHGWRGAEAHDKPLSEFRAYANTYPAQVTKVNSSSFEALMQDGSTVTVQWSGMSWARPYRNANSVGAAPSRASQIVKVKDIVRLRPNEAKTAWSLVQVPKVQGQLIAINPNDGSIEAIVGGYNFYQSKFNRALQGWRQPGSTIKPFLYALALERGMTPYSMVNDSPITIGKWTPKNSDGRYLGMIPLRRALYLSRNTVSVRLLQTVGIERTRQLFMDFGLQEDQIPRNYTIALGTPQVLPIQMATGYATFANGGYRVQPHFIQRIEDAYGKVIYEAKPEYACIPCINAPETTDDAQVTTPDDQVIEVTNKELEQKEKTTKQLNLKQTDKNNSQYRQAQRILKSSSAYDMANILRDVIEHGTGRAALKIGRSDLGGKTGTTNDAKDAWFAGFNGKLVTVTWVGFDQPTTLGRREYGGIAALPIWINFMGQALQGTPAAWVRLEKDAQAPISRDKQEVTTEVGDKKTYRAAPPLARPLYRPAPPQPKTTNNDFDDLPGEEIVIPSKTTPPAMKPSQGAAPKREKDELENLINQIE
Description: To determine the ability of boronic acid-based test PBP inhibitors to bind Penicillin Binding Proteins (PBPs), Bocillin-FL (fluorescently-labeled penicillin V; ThermoFisher Scientific) was used in a fluorescence polarization (FP) competition binding assay to assess inhibitor binding to PBP3 from Escherichia coli (K-12), PBP3 from Pseudomonas aeruginosa (PAO1), PBP1a and PBP3 from Acinetobacter baumannii (ATCC 19606), and PBP2 from Neisseria gonorrhoeae (FA19). PBPs were cloned and purified as described previously (E. coli PBP3, King, D. T, et al., ACS Infectious Diseases 2015, 1, 175-184; P. aeruginosa PBP3, Han et. al., PNAS 2010, 107 (51), 22002-22007; A. baumannii PBPs, Penwell et. al., Antimicrob. Agents Chemother. 2015, 59 (3), 1680-1689; N. gonorrhoeae PBP2, Singh et. al., J. Biol. Chem. 2019, 294 (38), 14020-14032). To establish assay conditions for competition binding, enzyme titration/saturation binding experiments were initially performed. Bocillin-FL was prepared at 0.2 μM in a buffer comprised of 50 mM Hepes (pH 8.0), 300 mM NaCl and 10% (v/v) glycerol for reactions with E. coli, P. aeruginosa and N. gonorrhoeae PBPs, and 25 mM Tris (pH 8.0), 200 mM NaCl, 10% (v/v) glycerol and 0.005% (v/v) Tween 20 for reactions with A. baumannii PBPs. Saturation binding was performed by mixing 40 μl of PBP solutions ranging in concentrations from 0-24 μM with 40 μl of the 0.2 μM Bocillin-FL solution, in individual wells of a black 384-well microplate. FP was measured immediately upon mixing (Excitation, 490 nm; Emission, 520 nm; g-factor, 0.96), using a Cytation3 (BioTek) microplate reader and measured continuously for up to 120 minutes. The FP response stabilized after 15 minutes for P. aeruginosa and A. baumannii PBP3, 30 minutes for E. coli PBP3 and A. baumannii PBP1a, and less than 1 minute for N. gonorrhoeae PBP2. […] The competition binding assay (80 μl final volume) was validated using beta-lactams and PBPs at final concentrations of: 1.5 μM for E. coli PBP3; 0.75 μM for P. aeruginosa PBP3; 1 μM for A. baumannii PBP1a; 0.2 μM for A. baumannii PBP3; and 0.25 μM for N. gonorrhoeae PBP2. Bocillin-FL was at 0.1 μM (0.05 μM with A. baumannii PBP1a) and beta-lactam concentrations ranged from 0-1,000 μM. E. coli PBP3 was incubated with increasing concentrations of ampicillin in a black 384-well microplate (Corning) for 30 minutes. P. aeruginosa PBP3 was incubated for 15 minutes with aztreonam, whereas A. baumannii PBP1a and PBP3 were incubated for 15 minutes with meropenem, and then Bocillin-FL was added followed immediately by the FP measurement for up to 60 minutes. […] The beta-lactam potency was reported as the concentration of beta-lactam required to reduce the amount of PBP bound-Bocillin-FL by 50% (EC50). […] The EC50 of aztreonam was determined to be <0.5 μM for P. aeruginosa PBP3. […] Binding assays for boronic acid PBP inhibitors were performed in an identical fashion for the respective PBPs.

Compound | MIC [1] | MIC [2] | MIC [3] | MIC [4] | MIC [5] | MIC [6] | MIC [7] | IC50 [8]
O=C(N[C@@H](C(=O)N[C@H]1Cc2cccc(C(=O)O)c2OB1O)c1ccc(P(=O)(O)O)cc1)c1ccc(O)c(O)c1Cl [Example 49, (R)-3-((R)-2-(2-chloro-3,4-dihydroxybenzamido)-2-(4-phosphonophenyl)acetamido)-2-hydroxy-3,4-dihydro-2H-benzo[e][1,2]oxaborinine-8-carboxylic acid] | < 1 µg/mL | < 1 µg/mL | < 1 µg/mL | 2 to 4 µg/mL (≈ 3.39 to 6.77 µM) | > 128 µg/mL | < 1 µg/mL | < 1 µg/mL | 
O=C(NCCN1CCN(C(=O)NC(C(=O)N[C@H]2Cc3ccc(F)c(C(=O)O)c3OB2O)c2ccc(P(=O)(O)O)cc2)C(=O)C1=O)c1ccc(O)c(O)c1Cl (stereo partly drawn) [Example 120, (3R)-3-(2-(4-(2-(2-chloro-3,4-dihydroxybenzamido)ethyl)-2,3-dioxopiperazine-1-carboxamido)-2-(4-phosphonophenyl)acetamido)-7-fluoro-2-hydroxy-3,4-dihydro-2H-benzo[e][1,2]oxaborinine-8-carboxylic acid] | < 1 µg/mL | < 1 µg/mL | < 1 µg/mL | < 1 µg/mL | < 1 µg/mL | < 1 µg/mL | < 1 µg/mL | 
CS(=O)(=O)N1CCN(C(=O)NC(C(=O)N[C@H]2Cc3cccc(C(=O)O)c3OB2O)c2ccc(P(=O)(O)O)c(Cl)c2)C1=O (stereo partly drawn) [Example 11, (3R)-3-(2-(3-chloro-4-phosphonophenyl)-2-(3-(methylsulfonyl)-2-oxoimidazolidine-1-carboxamido)acetamido)-2-hydroxy-3,4-dihydro-2H-benzo[e][1,2]oxaborinine-8-carboxylic acid] |  |  |  |  |  |  |  | 50 to 250 µM
O=C(O)c1c(F)ccc2c1OB(O)[C@@H](NC(=O)C(NC(=O)N1CCN(Cc3ccc(O)c(O)c3Cl)C(=O)C1=O)c1ccc(P(=O)(O)O)cc1)C2 (stereo partly drawn) [Example 8, (3R)-3-(2-(4-(2-chloro-3,4-dihydroxybenzyl)-2,3-dioxopiperazine-1-carboxamido)-2-(4-phosphonophenyl)acetamido)-7-fluoro-2-hydroxy-3,4-dihydro-2H-benzo[e][1,2]oxaborinine-8-carboxylic acid] | < 1 µg/mL | < 1 µg/mL | < 1 µg/mL | 2 to 4 µg/mL (≈ 2.72 to 5.44 µM) | < 1 µg/mL | < 1 µg/mL | < 1 µg/mL | 
CS(=O)(=O)N1CCN(C(=O)N[C@@H](C(=O)N[C@H]2Cc3ccc(F)c(C(=O)O)c3OB2O)c2ccc(P(=O)(O)O)c(F)c2F)C1=O [Example 16, (R)-3-((R)-2-(2,3-difluoro-4-phosphonophenyl)-2-(3-(methylsulfonyl)-2-oxoimidazolidine-1-carboxamido)acetamido)-7-fluoro-2-hydroxy-3,4-dihydro-2H-benzo[e][1,2]oxaborinine-8-carboxylic acid] |  |  |  |  |  |  |  | > 250 µM
CCN1CCN(C(=O)NC(C(=O)N[C@H]2Cc3cccc(C(=O)O)c3OB2O)c2cccc(CP(=O)(O)O)c2)C(=O)C1=O (stereo partly drawn) [Example 22, (3R)-3-(2-(4-ethyl-2,3-dioxopiperazine-1-carboxamido)-2-(3-(phosphonomethyl)phenyl)acetamido)-2-hydroxy-3,4-dihydro-2H-benzo[e][1,2]oxaborinine-8-carboxylic acid] |  |  |  |  |  |  |  | > 250 µM
CS(=O)(=O)N1CCN(C(=O)N[C@@H](C(=O)N[C@H]2Cc3cccc(C(=O)O)c3OB2O)c2ccc(P(=O)(O)O)c(F)c2F)C1=O (single isomer, unassigned) [Example 13] |  |  |  |  |  |  |  | > 250 µM
CS(=O)(=O)N1CCN(C(=O)N[C@@H](C(=O)N[C@H]2Cc3ccc(F)c(C(=O)O)c3OB2O)c2ccc(P(=O)(O)O)c(F)c2)C1=O (single isomer, unassigned) [Example 19] | 2 to 4 µg/mL (≈ 3.09 to 6.19 µM) | 32 to 64 µg/mL (≈ 49.5 to 99 µM) | > 128 µg/mL | > 128 µg/mL | > 128 µg/mL | 32 to 64 µg/mL (≈ 49.5 to 99 µM) | > 128 µg/mL | 
O=C(O)c1c(F)ccc2c1OB(O)[C@@H](NC(=O)C(NC(=O)N1CCN(Cc3cc(F)c(O)c(O)c3Cl)C(=O)C1=O)c1ccc(P(=O)(O)O)cc1)C2 (stereo partly drawn) [Example 45, (3R)-3-(2-(4-(2-chloro-5-fluoro-3,4-dihydroxybenzyl)-2,3-dioxopiperazine-1-carboxamido)-2-(4-phosphonophenyl)acetamido)-7-fluoro-2-hydroxy-3,4-dihydro-2H-benzo[e][1,2]oxaborinine-8-carboxylic acid] | < 1 µg/mL | < 1 µg/mL | < 1 µg/mL | < 1 µg/mL | < 1 µg/mL | < 1 µg/mL | < 1 µg/mL | > 250 µM
CCN1CCN(C(=O)NC(C(=O)N[C@H]2Cc3cccc(C(=O)O)c3OB2O)c2ccc(CP(=O)(O)O)cc2)C(=O)C1=O (stereo partly drawn) [Example 20, (3R)-3-(2-(4-ethyl-2,3-dioxopiperazine-1-carboxamido)-2-(4-(phosphonomethyl)phenyl)acetamido)-2-hydroxy-3,4-dihydro-2H-benzo[e][1,2]oxaborinine-8-carboxylic acid] |  |  |  |  |  |  |  | > 250 µM
O=C(O)c1c(F)ccc2c1OB(O)[C@@H](NC(=O)C(NC(=O)N1CCN(Cc3ccc(O)c(O)c3Cl)C1=O)c1ccc(P(=O)(O)O)cc1)C2 (stereo partly drawn) [Example 46, (3R)-3-(2-(3-(2-chloro-3,4-dihydroxybenzyl)-2-oxoimidazolidine-1-carboxamido)-2-(4-phosphonophenyl)acetamido)-7-fluoro-2-hydroxy-3,4-dihydro-2H-benzo[e][1,2]oxaborinine-8-carboxylic acid] | < 1 µg/mL | < 1 µg/mL | 2 to 4 µg/mL (≈ 2.83 to 5.66 µM) | 2 to 4 µg/mL (≈ 2.83 to 5.66 µM) |  | < 1 µg/mL | < 1 µg/mL | > 250 µM
